Consider eight compounds from ChEMBL document CHEMBL1201862, “PubChem BioAssay data set” (2004).

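In this assay, cells in 96-well plates receive the compound at five concentrations for 48 hours. Endpoints are linearly interpolated between the surrounding concentrations. GI50 = concentration required for 50% inhibition of growth.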 Active and inactive are the calls of the source. No stated cut-off is given here; in the data, active = GI50 up to about 1.1 µM and inactive = higher.

Holding throughout (assay): NCI tumour cell line growth inhibition, 48 h
In experiment [1] the test system is SR.
Experiment [2] deals with ACHN.
Experiment [3] relates to SK-MEL-2.
Experiment [4] has as its system DU-145.
Experiment [5] has as its system U-251.
Experiment [6] deals with UO-31.
The subject of experiment [7] is HCT-15.
Experiment [8] relates to IGROV-1.
For experiment [9], the system named is HCT-116.
Experiment [10] concerns SK-MEL-5.
Experiment [11] relates to PC-3.
The test system of experiment [12] is HOP-92.
The test system of experiment [13] is A549.
Experiment [14] relates to HCC 2998.
In experiment [15] the test system is RPMI-8226.
Experiment [16] has as its system MOLT-4.
Experiment [17] has as its system SF-295.
Experiment [18] concerns SW-620.
Experiment [19] concerns OVCAR-3.
In experiment [20] the test system is A498.

For `COc1cc(-c2cc(=O)c3c(OC)c(OC)c(OC)c(OC)c3o2)c(OC)c(OC)c1OC`, the GI50 in experiment [1] was 27.4 µM (inactive); in [2], 22 µM (inactive); in experiment [3] it was 20.5 µM (inactive); in experiment [4] it was 43.4 µM (inactive); in [5] it was 48.1 µM (inactive); in experiment [6], 21.6 µM (inactive). For the same compound, the GI50 in experiment [7] is 30.3 µM; in experiment [8], 12.3 µM (inactive); in experiment [9], 30.7 µM (inactive); in experiment [10], 36.1 µM (inactive); in [11], 14.3 µM (inactive); in [12] it was 13.9 µM (inactive). In addition, the GI50 in experiment [13] is 48.1 µM (inactive); in experiment [14], 49.3 µM (inactive); in experiment [15], 24.5 µM (inactive); in experiment [16], 72.6 µM (inactive); in experiment [17], 43.8 µM (inactive); in [18], 45.3 µM (inactive).
On to `Cc1ccc(-c2cnc(NC3OC(COC(=O)c4ccccc4)C(OC(=O)c4ccccc4)C(OC(=O)c4ccccc4)C3OC(=O)c3ccccc3)s2)cc1` (centres undefined), for which the GI50 in experiment [1], in [2], in [3], in [4], in [5] and in experiment [6] was > 100 µM (inactive) in each case. In addition, the GI50 in [7] was over 100 µM; in experiment [8], > 100 µM (inactive); in experiment [9] it was > 100 µM (inactive); in experiment [10], > 100 µM (inactive); in [11], > 100 µM (inactive); in [12] it was 20.4 µM (inactive). Besides, the GI50 in [19], in experiment [13], in [15], in [16], in experiment [17] and in experiment [18] was > 100 µM (inactive) throughout.
As for `Cc1cccc(Nc2cnc(N)nc2N)c1`, the GI50 in experiment [2] is > 100 µM (inactive); in experiment [3], > 100 µM (inactive); in experiment [4], > 100 µM (inactive); in experiment [5], > 100 µM (inactive); in experiment [6] it was 90.2 µM (inactive); in experiment [7], over 100 µM. Besides, the GI50 in [8], in experiment [9], in experiment [20], in experiment [10], in experiment [11] and in experiment [12] was > 100 µM (inactive) throughout. For the same compound, the GI50 in experiment [19], in experiment [13], in [14], in experiment [15], in [16] and in experiment [17] was > 100 µM (inactive) throughout. Further, in experiment [18], the GI50 is > 100 µM (inactive).
With `C=CCOC1OC(CO[Si](C)(C)C(C)(C)C)C(OCc2ccccc2)C(OCc2ccccc2)C1OCc1ccccc1` (centres undefined), the GI50 was > 100 µM (inactive) in experiment [1]; 40.4 µM (inactive) in [2]; 47.8 µM (inactive) in experiment [3]; 39.7 µM (inactive) in experiment [4]; 29.2 µM (inactive) in experiment [5]; 46.1 µM (inactive) in [6]. Besides, the GI50 is 88.3 µM in experiment [7]; 90.2 µM (inactive) in experiment [8]; 23 µM (inactive) in experiment [9]; 29.5 µM (inactive) in experiment [10]; 58.9 µM (inactive) in experiment [11]; 38.5 µM (inactive) in experiment [12]. For the same compound, the GI50 in [19] is 37.2 µM (inactive); in experiment [13], 23.6 µM (inactive); in experiment [15], > 100 µM (inactive); in [16], > 100 µM (inactive); in [17], 22.1 µM (inactive); in experiment [18], > 100 µM (inactive).
`NC(=O)C(NC=O)c1ccccc1` (centres undefined): the GI50 in experiment [1] is > 100 µM (inactive); in [2], > 100 µM (inactive); in [4], > 100 µM (inactive); in [5], > 100 µM (inactive); in experiment [6], > 100 µM (inactive); in experiment [7], over 100 µM. Besides, the GI50 in experiment [8], in [9], in experiment [10], in experiment [11], in experiment [12] and in [19] was > 100 µM (inactive) each time. Also, the GI50 in [13], in [14], in experiment [16], in experiment [17] and in experiment [18] was > 100 µM (inactive) in each case.
For the compound `COc1cnnc2c(C)c(-c3ccccc3)nn12`, the GI50 in experiment [2] was 68.9 µM (inactive); in [3] it was 40.4 µM (inactive); in experiment [4], 24.3 µM (inactive); in experiment [5], > 70.3 µM (inactive); in experiment [6], 32.5 µM (inactive); in experiment [7] it was over 100 µM. The GI50 in experiment [8] is 38.4 µM (inactive); in experiment [9], 77.1 µM (inactive); in experiment [20], 29.2 µM (inactive); in experiment [10], > 75.5 µM (inactive); in [11] it was > 86.5 µM (inactive); in experiment [12], 59.3 µM (inactive). Besides, the GI50 in experiment [19] is 59.2 µM (inactive); in [13], > 95.9 µM (inactive); in experiment [14] it was > 100 µM (inactive); in [15], 56.5 µM (inactive); in [16], > 83.6 µM (inactive); in experiment [17] it was > 78.7 µM (inactive). Moreover, the GI50 in experiment [18] is > 100 µM (inactive).
Regarding `O=C1c2ccccc2-c2nc(-c3cccs3)cc3c2c1nc1ccccc13`, the GI50 in [1] was 6.21 µM (inactive); in experiment [2] it was 34.4 µM (inactive); in experiment [3], 13.6 µM (inactive); in experiment [4], 14.1 µM (inactive); in experiment [5], 18.6 µM (inactive); in [6], 22.7 µM (inactive). Further, the GI50 in experiment [7] is 15.2 µM; in experiment [8] it was 12.4 µM (inactive); in experiment [9], 14.3 µM (inactive); in experiment [11], 12.6 µM (inactive); in [12] it was > 100 µM (inactive); in experiment [19] it was 2.3 µM (inactive). Further, the GI50 in experiment [13] is 9.29 µM (inactive); in [14], 16.7 µM (inactive); in experiment [15], 23.2 µM (inactive); in experiment [16], 37.1 µM (inactive); in experiment [17], 27.8 µM (inactive); in experiment [18] it was 13.8 µM (inactive).
In the case of `CC1(C)C(=O)N(O)C(C)(C)N1N=O`, the GI50 in [1], in [2], in [3], in [4], in [5] and in experiment [6] was > 10 µM (inactive) in each case. For the same compound, the GI50 in [7] was over 10 µM; in [9] it was > 10 µM (inactive); in [11] it was > 10 µM (inactive); in experiment [12], > 10 µM (inactive); in [19], > 10 µM (inactive); in [13], > 10 µM (inactive). Besides, the GI50 in experiment [14] is > 10 µM (inactive); in experiment [15], 1.89 µM (inactive); in [16], > 10 µM (inactive); in experiment [17], > 10 µM (inactive); in experiment [18] it was > 10 µM (inactive).
